The source of these data is US9278922B2 (ABBVIE INC., priority 2009, dated 2016).

For this assay, the system named is HCV 1b-Con-1 replicon. Description: HCV 1b-Con-1 replicon assay (luciferase reporter gene, HuH-7 cells). Format: cell-based, Hepatitis C virus (HCV) genotype 1b-Con1. Particulars: Hepatitis C virus, Huh-7, luciferase reporter gene activity in the replicon, in the presence of 5% FBS.
As to `COC(=O)N[C@H](C(=O)N1CCC[C@H]1C(=O)Nc1ccc(CN(Cc2ccc(NC(=O)[C@@H]3CCCN3C(=O)[C@H](NC(=O)[C@@H]3CCCO3)c3ccccc3)cc2)c2ccccc2)cc1)C(C)(C)C` [Example 87, N-(methoxycarbonyl)-3-methyl-L-valyl-N-[4-({phenyl[4-({1-[(2R)-2-phenyl-2-{[(2S)-tetrahydrofuran-2-ylcarbonyl]amino}acetyl]-L-prolyl}amino)benzyl]amino}methyl)phenyl]-L-prolinamide], the EC50 is less than 1 nM.
In the case of `COC(=O)N[C@H](C)C(=O)N1CCC[C@H]1C(=O)Nc1ccc(CN(Cc2ccc(NC(=O)[C@@H]3CCCN3C(=O)[C@@H](C)NC(=O)OC)cc2)c2ccc(F)cc2)cc1` [Example 16] it was 10 to 100 nM; in that of `COCC(=O)N[C@H](C(=O)N1CCC[C@H]1C(=O)Nc1ccc(CN(Cc2ccc(NC(=O)[C@@H]3CCCN3C(=O)[C@@H](NC(=O)COC)C(C)(C)C)cc2)c2ccccc2)cc1)C(C)(C)C` [Example 40, (2S,2′S)-N,N′-[(phenylimino)bis(methanediylbenzene-4,1-diyl)]bis(1-{(2S)-2-[(methoxyacetyl)amino]-3,3-dimethylbutanoyl}pyrrolidine-2-carboxamide)], 10 to 100 nM; in that of `COC(=O)N[C@H](C(=O)N1CCC[C@H]1C(=O)Nc1ccc(CN(Cc2ccc(NC(=O)[C@@H]3CCCN3C(=O)[C@@H](c3ccccc3)N3CCCC3)cc2)c2ccccc2)cc1)C(C)(C)C` [Example 56, N-(methoxycarbonyl)-3-methyl-L-valyl-N-[4-({phenyl[4-({1-[(2R)-2-phenyl-2-pyrrolidin-1-ylacetyl]-L-prolyl}amino)benzyl]amino}methyl)phenyl]-L-prolinamide], less than 1 nM.
In the case of `COC(=O)N[C@H](C(=O)N1CCC[C@H]1C(=O)Nc1ccc(CN(Cc2ccc(NC(=O)[C@@H]3CCCN3C(=O)[C@H](NC(=O)OC)c3ccccc3)cc2)c2ccccc2)cc1)[C@H]1CCOC1` [Example 72] it was less than 1 nM; in that of `O=C(Nc1ccc(CN(Cc2ccc(NC(=O)[C@@H]3CCCN3C(=O)C(c3ccccc3)C3(O)CCCC3)cc2)c2ccc(F)cc2)cc1)[C@@H]1CCCN1C(=O)C(c1ccccc1)C1(O)CCCC1` (stereo partly drawn) [Example 106, (2S ,2′S)-N,N′-{[(4-fluorophenyl)imino]bis(methanediylbenzene-4,1-diyl)}bis{1-[(1-hydroxycyclopentyl)(phenyl)acetyl]pyrrolidine-2-carboxamide}], less than 1 nM; in that of `CCN(CC)[C@@H](C(=O)N1CCC[C@H]1C(=O)Nc1ccc(CN(Cc2ccc(NC(=O)[C@@H]3CCCN3C(=O)[C@@H](NC(=O)OC)C(C)(C)C)cc2)c2ccc(F)cc2)cc1)c1ccccc1` [Example 82, N-(methoxycarbonyl)-3-methyl-L-valyl-N-[4-({[4-({1-[(2R)-2-(diethylamino)-2-phenylacetyl]-L-prolyl}amino)benzyl](4-fluorophenyl)amino}methyl)phenyl]-L-prolinamide], less than 1 nM.
In the case of `COC(=O)N[C@@H](Cc1ccccc1)C(=O)N1CCC[C@H]1C(=O)Nc1ccc(CN(Cc2ccc(NC(=O)[C@@H]3CCCN3C(=O)[C@H](Cc3ccccc3)NC(=O)OC)cc2)c2ccccc2)cc1` [Example 61, dimethyl [(phenylimino)bis{methanediylbenzene-4,1-diylcarbamoyl(2S)pyrrolidine-2,1-diyl[(2S)-1-oxo-3-phenylpropane-1,2-diyl]}]biscarbamate] it was 1 to 10 nM; in that of `COC(=O)N[C@H](C(=O)N1CCC[C@H]1C(=O)Nc1ccc(CN(Cc2ccc3[nH]c([C@@H]4CCCN4C(=O)[C@@H](NC(=O)OC)C(C)C)nc3c2)c2ccccc2)cc1)C(C)C` [Example 20], less than 1 nM; in that of `COC(=O)N[C@H](C(=O)N1CCC[C@H]1C(=O)Nc1ccc(CN(Cc2ccc(NC(=O)[C@@H]3CCCN3C(=O)[C@@H](NC(=O)OC)[C@H]3CCOC3)cc2)c2ccccc2)cc1)[C@H]1CCOC1` [Example 39, dimethyl {(phenylimino)bis[methanediylbenzene-4,1-diylcarbamoyl(2S)pyrrolidine-2,1-diyl{(1S)-2-oxo-1-[(3R)-tetrahydrofuran-3-yl]ethane-2,1-diyl}]}biscarbamate], less than 1 nM.
In the case of `COC(=O)N[C@H](C(=O)N1CC=C[C@H]1C(=O)Nc1ccc(CN(Cc2ccc(NC(=O)[C@@H]3C=CCN3C(=O)[C@@H](NC(=O)OC)C(C)(C)C)cc2)c2ccc(F)cc2)cc1)C(C)(C)C` [Example 125, methyl [(1S)-1-{[(2S)-2-{[4-({(4-fluorophenyl)[4-({[(2S)-1-{(2S)-2-[(methoxycarbonyl)amino]-3,3-dimethylbutanoyl}-2,5-dihydro-1H-pyrrol-2-yl]carbonyl}amino)benzyl]amino}methyl)phenyl]carbamoyl}-2,5-dihydro-1H-pyrrol-1-yl]carbonyl}-2,2-dimethylpropyl]carbamate], the EC50 is less than 1 nM.
In the case of `CC(=O)N[C@H](C(=O)N1CCC[C@H]1C(=O)Nc1ccc(CN(Cc2ccc(NC(=O)[C@@H]3CCCN3C(=O)[C@@H](NC(C)=O)C(C)(C)C)cc2)c2ccccc2)cc1)C(C)(C)C` [Example 79, (2S,2′S)-N,N′-[(phenylimino)bis(methanediylbenzene-4,1-diyl)]bis {1-[(2S)-2-(acetylamino)-3,3-dimethylbutanoyl]pyrrolidine-2-carboxamide}] it was 10 to 100 nM.
Under `O=C(Nc1ccc(CN(Cc2ccc(NC(=O)[C@@H]3CCCN3C(=O)C(c3ccccc3)N3CC[C@@H](F)C3)cc2)c2ccc(F)cc2)cc1)[C@@H]1CCCN1C(=O)C(c1ccccc1)N1CC[C@@H](F)C1` (single isomer, unassigned) [Example 118] stands 1 to 10 nM.
In the case of `CCN(CC)[C@@H](C(=O)N1CCC[C@H]1C(=O)Nc1ccc(CN(Cc2ccc(NC(=O)[C@@H]3CCCN3C(=O)[C@@H](c3ccccc3)N(CC)CC)cc2)c2ccc(F)cc2)cc1)c1ccccc1` [Example 54, (2S,2′S)-N,N-{[(4-fluorophenyl)imino]bis(methanediylbenzene-4,1-diyl)}bis{1-[(2R)-2-(diethylamino)-2-phenylacetyl]pyrrolidine-2-carboxamide}] it was less than 1 nM; in that of `CC(C)[C@@H](C(=O)N1CCC[C@H]1C(=O)Nc1ccc(CN(Cc2ccc(NC(=O)[C@@H]3CCCN3C(=O)[C@H](C(C)C)N3CCCC3=O)cc2)c2ccccc2)cc1)N1CCCC1=O` [Example 42, (2S,2′S)-N,N′-[(phenylimino)bis(methanediylbenzene-4,1-diyl)]bis {1-[(2S)-3-methyl-2-(2-oxopyrrolidin-1-yl)butanoyl]pyrrolidine-2-carboxamide}], less than 1 nM.
As to `COC(=O)N[C@H](C(=O)N1CCC[C@H]1C(=O)Nc1cc(CN(Cc2ccc(OC)c(NC(=O)[C@@H]3CCCN3C(=O)[C@@H](NC(=O)OC)C(C)(C)C)c2)c2ccc(F)cc2)ccc1OC)C(C)(C)C` [Example 147, dimethyl ([(4-fluorophenyl)imino]bis{methanediyl(6-methoxybenzene-3,1-diyl)carbamoyl(2S)pyrrolidine-2,1-diyl[(2S)-3,3-dimethyl-1-oxobutane-1,2-diyl]})biscarbamate], the EC50 was 100 to 250 nM.
In the case of `CN(C)C(=O)N[C@H](C(=O)N1CCC[C@H]1C(=O)Nc1ccc(CN(Cc2ccc(NC(=O)[C@@H]3CCCN3C(=O)[C@@H](NC(=O)N(C)C)C(C)(C)C)cc2)c2ccccc2)cc1)C(C)(C)C` [Example 80, (2S,2′S)-N,N′-[(phenylimino)bis(methanediylbenzene-4,1-diyl)]bis(1-{(2S)-2-[(dimethylcarbamoyl)amino]-3,3-dimethylbutanoyl}pyrrolidine-2-carboxamide)] it was 10 to 100 nM; in that of `CC(C)(C)[C@H](Nc1nccs1)C(=O)N1CCC[C@H]1C(=O)Nc1ccc(CN(Cc2ccc(NC(=O)[C@@H]3CCCN3C(=O)[C@@H](Nc3nccs3)C(C)(C)C)cc2)c2ccccc2)cc1` [Example 121, (2S,2′S)-N,N′-[(phenylimino)bis(methanediylbenzene-4,1-diyl)]bis{1-[(2S)-3,3-dimethyl-2-(1,3-thiazol-2-ylamino)butanoyl]pyrrolidine-2-carboxamide}], less than 1 nM.
Consider `O=C(Nc1ccc(CN(Cc2ccc(NC(=O)[C@@H]3CCCN3C(=O)[C@@H](c3ccccc3)N3CCCCC3)cc2)c2ccc(F)cc2)cc1)[C@@H]1CCCN1C(=O)[C@@H](c1ccccc1)N1CCCCC1` [Example 92, (2S,2′S)-N,N′-{[(4-fluorophenyl)imino]bis(methanediylbenzene-4,1-diyl)}bis{1-[(2R)-2-phenyl-2-piperidin-1-ylacetyl]pyrrolidine-2-carboxamide}], for which the EC50 is less than 1 nM.
In the case of `COC(=O)N[C@H](C(=O)N1C(C)CC[C@H]1C(=O)Nc1ccc(CN(Cc2ccc(NC(=O)[C@@H]3CCC(C)N3C(=O)[C@H](NC(=O)OC)C(C)(C)C)cc2)c2ccc(F)cc2)cc1)C(C)(C)C` (stereo partly drawn) [Example 142, methyl [(1R)-1-{[(2S)-2-{[4-({(4-fluorophenyl)[4-({[(2S)-1-{(2S)-2-[(methoxycarbonyl)amino]-3,3-dimethylbutanoyl}-5-methylpyrrolidin-2-yl]carbonyl}amino)benzyl]amino}methyl)phenyl]carbamoyl}-5-methylpyrrolidin-1-yl]carbonyl}-2,2-dimethylpropyl]carbamate] it was less than 1 nM; in that of `COC(=O)N[C@H](C(=O)N1CSC(C)(C)[C@H]1C(=O)Nc1ccc(CN(Cc2ccc(NC(=O)[C@H]3N(C(=O)[C@@H](NC(=O)OC)C(C)(C)C)CSC3(C)C)cc2)c2ccccc2)cc1)C(C)(C)C` [Example 93, methyl [(1S)-1-{[(4R)-4-{[4-({[4-({[(4R)-3-{(2S)-2-[(methoxycarbonyl)amino]-3,3-dimethylbutanoyl}-5,5-dimethyl-1,3-thiazolidin-4-yl]carbonyl}amino)benzyl](phenyl)amino}methyl)phenyl]carbamoyl}-5,5-dimethyl-1,3-thiazolidin-3-yl]carbonyl}-2,2-dimethylpropyl]carbamate], 1 to 10 nM.
In the case of `O=C([C@@H](c1ccccc1)N1CCOCC1)N1CCC[C@H]1c1nc2cc(CN(Cc3ccc4[nH]c([C@@H]5CCCN5C(=O)[C@@H](c5ccccc5)N5CCOCC5)nc4c3)c3ccccc3)ccc2[nH]1` [Example 67, N,N-bis[(2-{(2S)-1-[(2R)-2-morpholin-4-yl-2-phenylacetyl]pyrrolidin-2-yl}-1H-benzimidazol-5-yl)methyl]aniline] it was less than 1 nM.

By EC50 is commonly meant the concentration needed to bring the measured effect to its halfway point.
